Here are results for 5 compounds from ChEMBL document CHEMBL1158659, “The alkaloids of Delphinium cashmirianum” (J Nat Prod, 1979).

The test system of data set [1] is Oryctolagus cuniculus. The data set is described as follows: Cardiovascular activity in Albino rabbit assessed as change in heart rate tested at basal heart rate of 185 beats/min at 5.0 mg/kg, iv by physiograph 4. The format is functional.
The test system of data set [2] is Oryctolagus cuniculus. Description: Cardiovascular activity in Albino rabbit assessed as change in heart rate tested at basal heart rate of 185 beats/min at 0.25 mg/kg, iv by physiograph 4. The format is functional.
In data set [3] the test system is Oryctolagus cuniculus. Description: Cardiovascular activity in Albino rabbit assessed as change in heart rate tested at basal heart rate of 185 beats/min at 0.50 mg/kg, iv by physiograph 4. The format is functional. The note with it: dose 0.5 mg/kg.
Data set [4] relates to Oryctolagus cuniculus. The data set is described as follows: Cardiovascular activity in Albino rabbit assessed as change in heart rate tested at basal heart rate of 185 beats/min at 0.10 mg/kg, iv by physiograph 4. The format is functional. The settings on record: dose 0.1 mg/kg.
Data set [5] concerns Oryctolagus cuniculus. The data set is described as follows: Cardiovascular activity in Albino rabbit assessed as change in heart rate tested at basal heart rate of 185 beats/min at 1.0 mg/kg, iv by physiograph 4. The data set is classed as functional.
Data set [6] concerns Oryctolagus cuniculus. Description: Cardiovascular activity in Albino rabbit assessed as change in heart rate tested at basal heart rate of 190 beats/min at 1.0 mg/kg, iv by physiograph 4. The data set is classed as functional.
Data set [7] in a line: Arrhythmogenic activity in albino guinea pig atria at 10 uM after repeated atrial washing. The data set is classed as tissue-based, Cavia porcellus, Cardiac atrium.
Data set [8] is filed under the species Cavia porcellus. Description: Cardiovascular activity in albino guinea pig atria assessed as increase in heart rate at 100 uM by physiograph 4. The format is functional, tissue-based. The settings on record: Cardiac atrium.
The species entered for data set [9] is Cavia porcellus. The data set is described as follows: Cardiovascular activity in albino guinea pig atria assessed as increase in heart rate by physiograph 4. The data set is classed as functional, tissue-based. The settings on record: Cardiac atrium.
Data set [10] concerns Oryctolagus cuniculus. The data set is described as follows: Cardiotoxicity in iv dosed Albino rabbit assessed as drug level to produce arrhythmias tested at basal heart rate of 190 beats/min. The data set is classed as toxicity, organism-based. The note with it: in vivo.
Data set [11] can be described thus: Arrhythmogenic activity in albino guinea pig atria at 100 uM. The format is tissue-based, Cavia porcellus, Cardiac atrium.
The subject of data set [12] is Oryctolagus cuniculus. The data set is described as follows: Cardiovascular activity in Albino rabbit assessed as change in heart rate tested at basal heart rate of 190 beats/min at 0.10 mg/kg, iv by physiograph 4. The format is functional. The note with it: dose 0.1 mg/kg.
For data set [13], the system named is Oryctolagus cuniculus. The data set is described as follows: Cardiovascular activity in Albino rabbit assessed as change in heart rate tested at basal heart rate of 190 beats/min at 0.50 mg/kg, iv by physiograph 4. The format is functional. The settings on record: dose 0.5 mg/kg.
Data set [14] relates to Oryctolagus cuniculus. Description: Cardiovascular activity in Albino rabbit assessed as change in heart rate tested at basal heart rate of 190 beats/min at 0.25 mg/kg, iv by physiograph 4. The format is functional.
The test system of data set [15] is Oryctolagus cuniculus. The data set is described as follows: Cardiotoxicity in iv dosed Albino rabbit assessed as time to produce arrhythmias tested at basal heart rate of 190 beats/min. The format is toxicity, organism-based. The settings on record: in vivo.
A short description of data set [16]: Arrhythmogenic activity in albino guinea pig atria after repeated atrial washing. The format is tissue-based, Cavia porcellus, Cardiac atrium.
For data set [17], the system named is Oryctolagus cuniculus. The data set is described as follows: Cardiovascular activity in Albino rabbit assessed as change in heart rate tested at basal heart rate of 180 beats/min at 1.0 mg/kg, iv by physiograph 4. The format is functional.
Data set [18] has as its system Oryctolagus cuniculus. Description: Cardiovascular activity in Albino rabbit assessed as change in heart rate tested at basal heart rate of 180 beats/min at 0.50 mg/kg, iv by physiograph 4. The format is functional. The settings on record: dose 0.5 mg/kg.
Data set [19] deals with Oryctolagus cuniculus. The data set is described as follows: Cardiovascular activity in Albino rabbit assessed as sinusoidal heart rate tested at basal heart rate of 180 beats/min at 0.05 mg/kg, iv by physiograph 4. The format is functional.
Data set [20] deals with Oryctolagus cuniculus. Description: Cardiovascular activity in Albino rabbit assessed as change in heart rate tested at basal heart rate of 180 beats/min at 0.25 mg/kg, iv by physiograph 4. The data set is classed as functional.
For data set [21], the system named is Oryctolagus cuniculus. Description: Cardiovascular activity in Albino rabbit assessed as change in heart rate tested at basal heart rate of 180 beats/min at 5.0 mg/kg, iv by physiograph 4. The format is functional.
Data set [22] relates to Oryctolagus cuniculus. Description: Cardiovascular activity in Albino rabbit assessed as change in heart rate tested at basal heart rate of 180 beats/min at 0.10 mg/kg, iv by physiograph 4. The format is functional. The note with it: dose 0.1 mg/kg.
The subject of data set [23] is Oryctolagus cuniculus. The data set is described as follows: Cardiovascular activity in Albino rabbit assessed as change in heart rate tested at basal heart rate of 178 beats/min at 1.0 mg/kg, iv by physiograph 4. The format is functional.
The test system of data set [24] is Oryctolagus cuniculus. The data set is described as follows: Cardiovascular activity in Albino rabbit assessed as change in heart rate tested at basal heart rate of 178 beats/min at 0.50 mg/kg, iv by physiograph 4. The note with it: dose 0.5 mg/kg. The data set is classed as functional.
The subject of data set [25] is Oryctolagus cuniculus. Description: Cardiotoxicity in iv dosed Albino rabbit assessed as time to produce arrhythmias tested at basal heart rate of 150 beats/min. The data set is classed as toxicity, organism-based. The settings on record: in vivo.
Data set [26] is described as follows: Arrhythmogenic activity in albino guinea pig atria at 30 uM. The format is tissue-based, Cavia porcellus, Cardiac atrium.
Data set [27] concerns Oryctolagus cuniculus. Description: Cardiotoxicity in iv dosed Albino rabbit assessed as drug level to produce arrhythmias tested at basal heart rate of 150 beats/min. The data set is classed as toxicity, organism-based. The note with it: in vivo.
Data set [28] has as its system Oryctolagus cuniculus. The data set is described as follows: Cardiovascular activity in Albino rabbit assessed as sinusoidal heart rate tested at basal heart rate of 150 beats/min at 0.005 mg/kg, iv by physiograph 4. The format is functional.
Data set [29] deals with Oryctolagus cuniculus. The data set is described as follows: Cardiotoxicity in iv dosed Albino rabbit assessed as drug level to produce arrhythmias tested at basal heart rate of 150 beats/min upto 30 mins. The format is toxicity, organism-based. The note with it: in vivo, 0.5 h.
The subject of data set [30] is Oryctolagus cuniculus. The data set is described as follows: Cardiovascular activity in Albino rabbit assessed as sinusoidal heart rate tested at basal heart rate of 150 beats/min at 0.010 mg/kg, iv by physiograph 4. The data set is classed as functional. The note with it: dose 0.01 mg/kg.

Calls of active or inactive are those of the source. No cut-off for these calls is given here.

For `CCN1C[C@]2(O)CC[C@H](OC)[C@@]34[C@@H]2C[C@H]([C@@H]13)[C@@]1(O)C[C@H](OC)[C@H]2C[C@@H]4[C@]1(O)[C@H]2OC` [LAPPACONINE], the Activity was 0 bpm in data set [1]; 0 bpm in data set [2]; 0 bpm in [3]; -5 bpm in data set [4]; 0 bpm in data set [5].
For the compound `CCN1C[C@]2(OC(=O)c3ccccc3NC(C)=O)CC[C@H](OC)[C@@]34[C@@H]2C[C@@H]([C@@H]13)[C@@]1(O)C[C@H](OC)[C@H]2C[C@@H]4[C@]1(O)[C@H]2OC`, the Activity was -35 bpm in data set [6]; “Toxic” in [7]; 1 mg/kg in data set [10]; “Toxic” in data set [11]; 0 bpm in [12]; -30 bpm in data set [13]. The figures for the Activity in data set [14], in [15] and in data set [16] were -5 bpm, 45 s and “Non-toxic”, respectively. The outcome in data set [8] and in data set [9] was inactive.
With `CCN1C[C@]2(COC(=O)c3ccccc3NC(=O)CCC(N)=O)CC[C@H](OC)[C@@]34[C@@H]5C[C@H]6[C@H](OC)[C@@H]5[C@](O)(C[C@@H]6OC)[C@](O)([C@@H](OC)[C@H]23)[C@@H]14` [AVADHARIDINE], the Activity in data set [17] is 0 bpm; in [18] it was 0 bpm; in data set [19], 0 bpm; in data set [20], 5 bpm; in data set [21] it was -10 bpm; in data set [22] it was 8 bpm.
As for `CCN1C[C@]2(COC(=O)c3ccccc3NC(=O)CCC(=O)OC)CC[C@H](OC)[C@@]34[C@@H]5C[C@H]6[C@H](OC)[C@@H]5[C@](O)(C[C@@H]6OC)[C@](O)([C@@H](OC)[C@H]23)[C@@H]14` [CASHMIRADELPHINE], the Activity in data set [17] was -20 bpm; in data set [23], -10 bpm; in data set [18] it was -5 bpm; in [19], -5 bpm; in [20], -5 bpm; in data set [22], 5 bpm. The Activity in data set [24] is -8 bpm.
Regarding `CCN1C[C@]2(COC)[C@H](O)C[C@H](OC)[C@@]34[C@@H]5C[C@@]6(O)[C@H](OC(=O)c7ccccc7)[C@@H]5[C@@](OC(C)=O)([C@@H]([C@H](OC)[C@H]23)[C@@H]14)[C@@H](O)[C@@H]6OC` [ACONITINE], the Activity result in data set [9] was “Dose-dependent effect”; in data set [10] it was 0.1 mg/kg; in data set [25], 30 s; in data set [26], “Toxic”; in data set [27] it was 0.01 mg/kg; in data set [28] it was 110 bpm. For the same compound, the Activity in [15] was 12 s; in [29] it was 0.005 mg/kg; in data set [30] it was 170 bpm.
